The values below come from ChEMBL document CHEMBL3870304 (Eur J Med Chem, 2016).

The target of experiment [1] is T1, ALK tyrosine kinase receptor (Homo sapiens, UniProt Q9UM73).
Target sequence in this assay (Q9UM73 whole entry): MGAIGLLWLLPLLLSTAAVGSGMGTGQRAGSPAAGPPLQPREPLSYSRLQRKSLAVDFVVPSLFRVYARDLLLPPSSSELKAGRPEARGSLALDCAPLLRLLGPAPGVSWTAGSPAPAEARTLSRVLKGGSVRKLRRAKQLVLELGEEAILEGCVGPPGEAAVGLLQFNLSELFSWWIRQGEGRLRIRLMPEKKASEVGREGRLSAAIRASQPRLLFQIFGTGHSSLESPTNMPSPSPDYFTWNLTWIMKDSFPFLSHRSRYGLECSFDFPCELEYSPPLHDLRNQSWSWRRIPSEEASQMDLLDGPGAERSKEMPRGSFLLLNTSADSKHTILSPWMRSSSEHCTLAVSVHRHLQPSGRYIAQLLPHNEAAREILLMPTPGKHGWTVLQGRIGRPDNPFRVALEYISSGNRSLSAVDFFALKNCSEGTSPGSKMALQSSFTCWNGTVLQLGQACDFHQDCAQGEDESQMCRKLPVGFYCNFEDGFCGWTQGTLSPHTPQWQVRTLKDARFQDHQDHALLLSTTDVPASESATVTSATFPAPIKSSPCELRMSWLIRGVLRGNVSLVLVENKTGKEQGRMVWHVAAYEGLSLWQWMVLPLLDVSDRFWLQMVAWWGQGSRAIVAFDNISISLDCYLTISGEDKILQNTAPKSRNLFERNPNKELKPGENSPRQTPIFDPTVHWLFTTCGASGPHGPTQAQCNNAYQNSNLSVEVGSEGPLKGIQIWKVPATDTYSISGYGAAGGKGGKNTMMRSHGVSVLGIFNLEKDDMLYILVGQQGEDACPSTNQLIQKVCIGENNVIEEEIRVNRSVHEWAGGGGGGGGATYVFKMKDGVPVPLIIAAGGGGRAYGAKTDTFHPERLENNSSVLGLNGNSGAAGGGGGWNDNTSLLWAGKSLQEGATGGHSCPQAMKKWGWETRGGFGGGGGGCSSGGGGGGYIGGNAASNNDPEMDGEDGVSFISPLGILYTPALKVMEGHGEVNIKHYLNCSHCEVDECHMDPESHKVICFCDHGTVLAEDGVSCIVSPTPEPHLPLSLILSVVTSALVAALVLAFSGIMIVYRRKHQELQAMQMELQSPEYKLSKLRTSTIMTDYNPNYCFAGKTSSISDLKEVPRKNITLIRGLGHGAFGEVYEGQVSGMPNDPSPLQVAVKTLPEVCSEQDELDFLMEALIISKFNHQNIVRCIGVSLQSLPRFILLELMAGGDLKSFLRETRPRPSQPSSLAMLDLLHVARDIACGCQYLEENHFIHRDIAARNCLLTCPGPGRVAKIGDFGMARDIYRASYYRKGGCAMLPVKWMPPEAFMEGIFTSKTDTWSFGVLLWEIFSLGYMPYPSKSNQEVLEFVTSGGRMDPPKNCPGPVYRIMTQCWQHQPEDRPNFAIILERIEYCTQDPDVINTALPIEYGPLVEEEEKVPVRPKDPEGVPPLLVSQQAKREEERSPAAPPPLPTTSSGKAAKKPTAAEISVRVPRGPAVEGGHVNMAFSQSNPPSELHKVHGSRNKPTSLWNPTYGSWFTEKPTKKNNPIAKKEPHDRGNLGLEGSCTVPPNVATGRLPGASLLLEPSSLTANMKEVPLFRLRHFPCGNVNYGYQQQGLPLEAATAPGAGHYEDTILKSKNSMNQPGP
Description: Inhibition of ALK (unknown origin) using peptide as substrate after 60 mins by HTRF assay
Experiment [2] has as its target ALK tyrosine kinase receptor (Homo sapiens, UniProt Q9UM73, L1196M).
Experiment [3] has as its system ALK tyrosine kinase receptor (Homo sapiens), Q9UM73 [L1196M]. Briefly: Potency index, ratio of crizotinib IC50 to compound IC50 for ALK L1196M mutant (unknown origin).
Experiment [4] concerns the target Proto-oncogene tyrosine-protein kinase ROS (Homo sapiens, UniProt P08922).
Description: Inhibition of ROS1 (unknown origin) using peptide as substrate after 60 mins by HTRF assay
Experiment [5] concerns the target Hepatocyte growth factor receptor (Homo sapiens, UniProt P08581).
Description: Inhibition of c-Met (unknown origin) using peptide as substrate after 60 mins by HTRF assay
Experiment [6] has as its target Epidermal growth factor receptor (Homo sapiens, UniProt P00533).
Description: Inhibition of EGFR (unknown origin) using peptide as substrate after 60 mins by HTRF assay
The nature of experiment [7]: cells. The note with it: Homo sapiens, KARPAS-299, 72 h.
Description: Cytotoxicity against human KARPAS299 cells harboring NPM-ALK assessed as reduction in cell proliferation after 72 hrs by MTT assay
Experiment [8] can be described thus: cells. The note with it: Homo sapiens, HCC78, 72 h.
Description: Cytotoxicity against human HCC78 cells harboring SLC34A2-ROS1 assessed as reduction in cell proliferation after 72 hrs by MTT assay
The nature of experiment [9]: cells. The note with it: Homo sapiens, A549, 72 h.
Description: Cytotoxicity against human A549 cells assessed as reduction in cell proliferation after 72 hrs by MTT assay
The nature of experiment [10]: cells. The following applies: Homo sapiens, NCI-H460, 72 h.
Description: Cytotoxicity against human NCI-H460 cells assessed as reduction in cell proliferation after 72 hrs by MTT assay
The nature of experiment [11]: cells. The following applies: Homo sapiens, HT-29, 72 h.
Description: Cytotoxicity against human HT-29 cells assessed as reduction in cell proliferation after 72 hrs by MTT assay
Experiment [12] addresses T1, ALK tyrosine kinase receptor. Briefly: Potency index, ratio of crizotinib IC50 to compound IC50 for ALK (unknown origin).
Target sequence in this assay (Q9UM73 19-1620 limits assumed): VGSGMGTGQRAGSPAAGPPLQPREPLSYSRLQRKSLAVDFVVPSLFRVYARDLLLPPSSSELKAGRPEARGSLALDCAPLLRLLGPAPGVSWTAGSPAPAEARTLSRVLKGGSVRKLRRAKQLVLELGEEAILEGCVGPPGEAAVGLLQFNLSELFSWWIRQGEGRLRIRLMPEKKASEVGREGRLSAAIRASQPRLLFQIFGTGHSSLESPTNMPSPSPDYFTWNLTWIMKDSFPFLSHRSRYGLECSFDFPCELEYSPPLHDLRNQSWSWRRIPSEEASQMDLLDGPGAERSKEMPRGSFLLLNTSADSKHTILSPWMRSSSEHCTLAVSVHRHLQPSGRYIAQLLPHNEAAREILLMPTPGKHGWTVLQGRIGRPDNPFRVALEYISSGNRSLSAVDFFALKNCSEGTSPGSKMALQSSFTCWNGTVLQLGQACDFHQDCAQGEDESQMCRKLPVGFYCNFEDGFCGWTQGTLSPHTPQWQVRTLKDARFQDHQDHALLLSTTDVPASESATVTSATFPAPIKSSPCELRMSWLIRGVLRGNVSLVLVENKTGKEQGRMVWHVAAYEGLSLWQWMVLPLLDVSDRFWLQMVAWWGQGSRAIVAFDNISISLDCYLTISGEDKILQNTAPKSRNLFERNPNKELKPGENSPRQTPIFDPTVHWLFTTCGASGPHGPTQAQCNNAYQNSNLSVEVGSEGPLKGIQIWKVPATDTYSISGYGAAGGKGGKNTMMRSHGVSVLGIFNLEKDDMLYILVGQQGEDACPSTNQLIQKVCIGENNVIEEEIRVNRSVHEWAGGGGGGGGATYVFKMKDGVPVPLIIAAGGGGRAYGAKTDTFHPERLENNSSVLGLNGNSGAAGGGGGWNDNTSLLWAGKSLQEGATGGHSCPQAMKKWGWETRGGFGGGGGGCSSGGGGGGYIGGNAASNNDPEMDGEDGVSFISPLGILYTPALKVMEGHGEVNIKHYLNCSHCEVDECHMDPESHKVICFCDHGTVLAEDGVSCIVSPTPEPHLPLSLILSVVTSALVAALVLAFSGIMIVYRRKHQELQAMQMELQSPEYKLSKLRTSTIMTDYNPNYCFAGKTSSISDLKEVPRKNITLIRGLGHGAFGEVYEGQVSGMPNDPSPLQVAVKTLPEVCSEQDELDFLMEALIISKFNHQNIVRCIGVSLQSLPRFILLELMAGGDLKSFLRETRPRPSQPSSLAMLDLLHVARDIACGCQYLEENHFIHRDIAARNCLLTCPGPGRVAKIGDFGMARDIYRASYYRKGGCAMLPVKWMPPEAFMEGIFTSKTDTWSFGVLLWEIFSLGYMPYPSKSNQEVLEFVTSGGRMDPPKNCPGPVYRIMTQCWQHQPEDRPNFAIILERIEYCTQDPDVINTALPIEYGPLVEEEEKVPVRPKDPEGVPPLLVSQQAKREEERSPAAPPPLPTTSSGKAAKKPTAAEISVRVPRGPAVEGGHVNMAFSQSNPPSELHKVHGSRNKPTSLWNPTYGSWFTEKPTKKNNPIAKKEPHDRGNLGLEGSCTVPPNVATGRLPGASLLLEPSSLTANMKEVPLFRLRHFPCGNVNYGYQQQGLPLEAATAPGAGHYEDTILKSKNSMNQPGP
The test system of a further experiment is KARPAS-299. Briefly: Potency index, ratio of crizotinib IC50 to compound IC50 against human KARPAS299 cells harboring NPM-ALK. Type of experiment: functional.
A further experiment relates to HCC78. Briefly: Potency index, ratio of crizotinib IC50 to compound IC50 against human HCC78 cells harboring SLC34A2-ROS1. The class given is functional.

Sequence of Hepatocyte growth factor receptor (P08581 whole entry): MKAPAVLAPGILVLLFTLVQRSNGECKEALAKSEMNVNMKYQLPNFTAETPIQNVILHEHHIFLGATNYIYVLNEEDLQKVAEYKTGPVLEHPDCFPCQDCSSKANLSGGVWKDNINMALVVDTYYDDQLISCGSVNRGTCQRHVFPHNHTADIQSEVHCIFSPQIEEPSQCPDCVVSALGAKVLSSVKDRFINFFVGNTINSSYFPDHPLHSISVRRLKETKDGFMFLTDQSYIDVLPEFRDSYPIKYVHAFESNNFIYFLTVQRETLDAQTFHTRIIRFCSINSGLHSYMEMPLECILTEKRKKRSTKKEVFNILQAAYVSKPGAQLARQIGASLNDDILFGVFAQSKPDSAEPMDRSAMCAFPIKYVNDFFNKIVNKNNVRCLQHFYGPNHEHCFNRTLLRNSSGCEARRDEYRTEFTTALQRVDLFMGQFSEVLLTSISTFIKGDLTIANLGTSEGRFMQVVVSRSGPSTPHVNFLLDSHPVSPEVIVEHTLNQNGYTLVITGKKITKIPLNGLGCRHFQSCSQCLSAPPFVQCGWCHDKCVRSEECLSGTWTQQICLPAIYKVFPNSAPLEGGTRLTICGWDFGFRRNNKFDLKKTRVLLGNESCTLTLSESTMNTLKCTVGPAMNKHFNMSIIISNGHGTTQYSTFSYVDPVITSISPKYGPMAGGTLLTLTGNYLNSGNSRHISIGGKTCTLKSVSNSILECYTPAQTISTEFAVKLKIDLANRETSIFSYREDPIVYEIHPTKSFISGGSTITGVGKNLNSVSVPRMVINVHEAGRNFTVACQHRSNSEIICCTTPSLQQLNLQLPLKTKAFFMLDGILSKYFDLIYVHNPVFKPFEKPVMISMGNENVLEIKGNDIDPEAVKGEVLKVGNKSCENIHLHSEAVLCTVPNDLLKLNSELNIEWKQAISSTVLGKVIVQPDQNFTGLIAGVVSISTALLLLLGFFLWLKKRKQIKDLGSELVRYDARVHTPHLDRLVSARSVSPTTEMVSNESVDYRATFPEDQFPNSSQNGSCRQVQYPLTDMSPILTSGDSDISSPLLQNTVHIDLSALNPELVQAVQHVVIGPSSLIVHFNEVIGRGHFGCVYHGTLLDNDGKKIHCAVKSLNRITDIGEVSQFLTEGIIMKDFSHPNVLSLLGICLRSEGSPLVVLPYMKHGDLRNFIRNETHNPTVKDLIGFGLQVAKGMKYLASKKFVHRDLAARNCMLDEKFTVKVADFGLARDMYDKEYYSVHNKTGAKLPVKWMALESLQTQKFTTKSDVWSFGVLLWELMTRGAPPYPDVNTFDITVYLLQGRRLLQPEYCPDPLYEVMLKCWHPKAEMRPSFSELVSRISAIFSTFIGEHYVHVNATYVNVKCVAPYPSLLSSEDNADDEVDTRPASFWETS
Sequence of ALK tyrosine kinase receptor (Homo sapiens, UniProt Q9UM73, L1196M) (Q9UM73 19-1620 L1196M limits assumed): as the sequence (Q9UM73 19-1620 limits assumed) above, with L1178M counted along it
Sequence of ALK tyrosine kinase receptor (Homo sapiens), Q9UM73 [L1196M] (Q9UM73 whole entry L1196M, looked up): as the sequence (Q9UM73 whole entry) above, with L1196M counted along it

As for `COc1ccc(/C=N/Nc2ncc(Cl)c(Nc3ccccc3S(=O)(=O)C(C)C)n2)cc1`, the IC50 – broadly, the point on the concentration scale where inhibition reaches its midpoint – in [1] worked out at 4.8 nM; in experiment [2], 82 nM; in experiment [4], 2.3 nM; in experiment [5], 157 nM; in experiment [6], 587 nM; in “cells [7]”, 28 nM. Besides, the IC50 worked out at 20 nM in “cells [8]”, 580 nM in the experiment “cells [9]”, 1320 nM in the experiment “cells [10]” and 1130 nM in the experiment “cells [11]”. In addition, the Ratio IC50 in [3] was determined as 20.

In the case of `CC(C)S(=O)(=O)c1ccccc1Nc1nc(N/N=C/c2ccc(OC(F)(F)F)cc2)ncc1Cl`, the IC50 in experiment [1] worked out at 5.5 nM; in experiment [2], 79 nM; in experiment [4], 5.5 nM; in experiment [5], 393 nM; in [6] it was 898 nM; in the experiment “cells [7]”, 30 nM. For the same compound, the IC50 in “cells [8]” is 31 nM; in the experiment “cells [9]”, 980 nM; in “cells [10]”, 1200 nM; in the experiment “cells [11]”, 1930 nM. Moreover, the Ratio IC50 in experiment [3] is 20.

`CC(C)S(=O)(=O)c1ccccc1Nc1nc(N/N=C/c2cccc(C(F)(F)F)c2)ncc1Cl`: the IC50 in experiment [1] turned out to be 5.5 nM; in experiment [2], 69 nM; in [4], 5 nM; in experiment [5], 479 nM; in experiment [6] it was 460 nM; in the experiment “cells [7]”, 65 nM. The IC50 in “cells [8]” is 80 nM; in “cells [9]”, 3340 nM; in the experiment “cells [10]”, above 10000 nM; in “cells [11]”, 5500 nM. For the same compound, the Ratio IC50 in experiment [3] is 20.

Turning to `COc1ccc(/C(C)=N/Nc2ncc(Cl)c(Nc3ccccc3S(=O)(=O)C(C)C)n2)cc1`, the IC50 in [1] is 4.9 nM; in experiment [2], 80 nM; in experiment [4] it was 4.7 nM; in experiment [5] it was above 1000 nM; in [6] it was above 1000 nM; in the experiment “cells [7]”, 34 nM. Besides, the concentration for half-maximal inhibition (IC50) was 31 nM in “cells [8]”, 2120 nM in the experiment “cells [9]”, 2500 nM in the experiment “cells [10]” and above 10000 nM in “cells [11]”. The Ratio IC50 in experiment [3] worked out at 20.

`CC(C)S(=O)(=O)c1ccccc1Nc1nc(N/N=C/c2ccc(F)cc2)ncc1Cl`: the IC50 in [1] amounted to 2.3 nM; in experiment [2], 45 nM; in experiment [4], 1.8 nM; in experiment [5], 220 nM; in [6], 570 nM; in “cells [7]”, 16 nM. The IC50 in the experiment “cells [8]” came out at 19 nM; in “cells [9]”, 1400 nM; in “cells [10]”, 1300 nM; in “cells [11]”, 1760 nM. The Ratio IC50 came out at 9 in experiment [12] and 20 in experiment [3].

Turning to `CC(C)S(=O)(=O)c1ccccc1Nc1nc(N/N=C/c2ccc(C(F)(F)F)cc2)ncc1Cl`, the IC50 in experiment [1] worked out at 3.6 nM; in [2], 73 nM; in [4], 3.4 nM; in experiment [5], 380 nM; in [6], 593 nM; in “cells [7]”, 35 nM. Moreover, the IC50 was 82 nM in the experiment “cells [8]”, 940 nM in “cells [9]”, above 10000 nM in “cells [10]” and 1120 nM in the experiment “cells [11]”. For the same compound, the Ratio IC50 in [3] is 20.

Turning to `C/C(=N\Nc1ncc(Cl)c(Nc2ccccc2S(=O)(=O)C(C)C)n1)c1ccc(F)cc1`, the “Ratio IC50” value turned out to be 2.4 with KARPAS-299, 11.1 in the experiment on HCC78, 9 in experiment [12] and 20 in experiment [3]. Also, the IC50 in experiment [1] was 2.5 nM; in experiment [2] it was 67 nM; in experiment [4], 2.7 nM; in experiment [5], above 1000 nM; in [6] it was above 1000 nM; in the experiment “cells [7]”, 20 nM. Further, the IC50 in the experiment “cells [8]” was 28 nM; in the experiment “cells [9]”, above 10000 nM; in the experiment “cells [10]”, above 10000 nM; in the experiment “cells [11]”, above 10000 nM.

`COc1cccc(/C=N/Nc2ncc(Cl)c(Nc3ccccc3S(=O)(=O)C(C)C)n2)c1`: the IC50 was determined as 6.2 nM in [1]; 86 nM in [2]; 5.8 nM in experiment [4]; 376 nM in experiment [5]; 601 nM in experiment [6]; 22 nM in the experiment “cells [7]”. Also, the IC50 was 44 nM in “cells [8]”, 1250 nM in the experiment “cells [9]”, 2230 nM in “cells [10]” and 5570 nM in the experiment “cells [11]”. Also, in experiment [3], the Ratio IC50 was 20.
